Results taken from ChEMBL document CHEMBL1132674, “Design, synthesis and DNA-cleavage of Gly-Gly-His-naphthalene diimide conjugates” (Bioorg Med Chem Lett, 1999).

Experiment: Binding constant of the compound

Binding constant [M⁻¹]	Structure (SMILES)
100000	CN(CCCNC(=O)C(Cc1c[nH]cn1)NC(=O)CNC(=O)CN)CCCN1C(=O)c2ccc3c4c(ccc(c24)C1=O)C(=O)N(CCCN(C)CCCNC(=O)C(Cc1c[nH]cn1)NC(=O)CNC(=O)CN)C3=O (configuration not stated)
100000	CN(CCCN)CCCN1C(=O)c2ccc3c4c(ccc(c24)C1=O)C(=O)N(CCCN(C)CCCNC(=O)C(Cc1c[nH]cn1)NC(=O)CNC(=O)CN)C3=O (configuration not stated)
